Data published in patent publication US20260345584A1, “METHODS AND PHARMACEUTICAL COMPOSITIONS FOR TREATING CHEMOTHERAPY-INDUCED PERIPHERAL NEUROPATHY WITH EG5 INHIBITORS” (UNIVERSITY OF MIAMI, priority 2023, published 2026).

Columns and labels:
axonal microtubules = test: Axonal detyrosination (GluTub) along axon segments in distal caudal fin; type: in vivo, zebrafish; conditions: EMD534085 alone, wildtype, 96 hr
Description: Larval fish were transferred into […] glass vials and fixed in 4% paraformaldehyde (PFA)/1× Phosphate-buffered saline (PBS) for 1.5 hr at room temperature, with gentle rocking. Following a 5-minute incubation in 1×PBS+0.1% Tween-20 (PBST), zebrafish were permeabilized in 1×PBS+0.1% Triton X-100 for 10-30 min. Larval fish were transferred into 2 ml reaction tubes and incubated in blocking buffer (1×PBST+5% BSA) for 30 min at room temperature, with rocking. Larval fish were further incubated overnight in antibody solution (Millipore Sigma, Cat. No. AB3201, 1:300 rabbit anti-GluTub; Sigma, Cat No. T6793, 1:500 mouse anti-acetylated tubulin) in blocking buffer at 4 °C, on a rotator. The next morning, larval fish were transferred into 6-well plates and washed 4×15 min in 1×PBST at room temperature, with rocking. […]
Axon branch number quantifications were performed by drawing a 50 μm line across the dorsal, medial, and ventral caudal fin edge region at a distance of 100 μm parallel to the fin edge (which was determined to be the most reliable region to quantify distal branch numbers). Axons traversing this line were counted and averaged per treatment group. Axonal fluorescence measurements were taken using the Imaris Spots function by manually placing spots along the axon and using the fluorescence intensity profile measurements MatLab tool.

[1] = system: HyPer oxidation in keratinocytes; test: HyPer imaging of H2O2 production upon caudal fin stretch; type: in vivo, zebrafish; conditions: wildtype, 3 hr paclitaxel
Description: HyPer fluorescence was measured in the oxidized (505 nm) and unoxidized (420 nm) channels by using the region of interest (ROI) function in ZEN Black (Zeiss) whereby ROIs were selected inside highly magnified mitochondria (HyPer-mito), cytoplasm (HyPer-cyto) or the plasma membrane (HyPer-CAAX). The data was exported, and ratios determined in Excel. H2O2 measurements in zebrafish transiently injected with tp63:Hyper were manually performed by placing spot objects in Imaris 9.5.1 onto individual cells such that the spots extended to the lateral edges. Fluorescence intensities were measured inside the spots and 505 nm/420 nm ratios were subsequently calculated.
The extent of stretch that was induced in wildtype transgenic Tg(tp63:GFP-CAAX) (Lisse et al., 2016, Proceedings of the National Academy of Sciences of the United States of America 113: E2189-2198) fish in which keratinocyte plasma membranes are fluorescently labelled was characterized.
To further investigate whether paclitaxel in combination with stretch alters ROS formation, HyPer imaging was performed.

peripheral neuropathy = test: von Frey behavioral testing; type: in vivo, mouse; conditions: mice, 2 mg/kg paclitaxel i.p. x4
Excerpt: Molecular mechanisms underlying paclitaxel-induced microtubule fasciculation were then investigated. […] Peripheral neuropathy was correlated with these times points using von Frey behavioral testing, which determined that peak neuropathy was present at day 7 (D7). This identified several biological categories during peak neuropathy with the largest clusters being implicated in extracellular matrix organization (e.g. “ECM”, “collagen-containing ECM”, “collagen trimer”) and cell cycle regulation (e.g. “outer kinetochore”, “kinesin complex”, condensed chromosome, centromeric region”, “mitotic spindle”, “microtubules”), consistent with our findings in zebrafish. Interactome analysis using STRING (Szklarczyk et al., 2021, Nucl. Acids Res 49: D605-D612) to predict protein association networks further identified major clusters involved in cell cycle regulation, which contained various kinesins, microtubule and nucleus regulators, as well as one cluster annotated as “disulfide bond”, consistent with a role for oxidative signal activation (Leonard et al., 2011, Current opinion in chemical biology 15: 88-102) (shown in FIG. 3D).

Structure (SMILES) | normalized GluTub intensity ratios (axon) (axonal microtubules) | time of peak HyPer oxidation post-stretch [1] [min] | day of peak neuropathy (peripheral neuropathy) [days]
CN(C)CCNC(=O)NC[C@H]1CC[C@@H]2[C@H](O1)c1cc(C(F)(F)F)ccc1N[C@H]2c1ccccc1 [EMD534085] | 2.13±0.13 | – | –
CC(=O)O[C@H]1C(=O)[C@@]2(C)[C@H]([C@H](OC(=O)c3ccccc3)[C@]3(O)C[C@H](OC(=O)[C@H](O)[C@@H](NC(=O)c4ccccc4)c4ccccc4)C(C)=C1C3(C)C)[C@]1(OC(C)=O)CO[C@@H]1C[C@@H]2O [paclitaxel] | – | 10 to 20 | 7
